Test results published in patent US20220098674A1, “METHODS AND COMPOSITIONS FOR SELECTING A CANCER TREATMENT IN A SUBJECT SUFFERING FROM CANCER” (INSERM (INSTITUT NATIONAL DE LA SANTÉ ET DR LA RECHERCH …, priority 2019, published 2022).

Assays:
[1] = system: RCC4+pVHL, RCC4 and RCC4 siVDAC1 cells; test: Sensitivity of RCC4 cell variants to sunitinib or 3BP treatment; assay type: cell-based
Method: RCC4/pVHL and 786-O/pVHL cells were grown in Dulbecco's Modified Eagle's Medium (DMEM) (Gibco-BRL) supplemented with 10% fetal bovine serum with penicillin G (50 U/ml) and streptomycin sulfate (50 μg/ml). ACHN and A498 RCC cell lines were purchased from the ATCC (Mar. 3, 2013). The RCC10 cell line was a kind gift from Dr. W. H. Kaelin (Dana-Farber Cancer Institute, Boston, Mass.). An INVIVO2 200 anaerobic workstation (Ruskinn Technology Biotrace International Plc) set at 1% oxygen, 94% nitrogen and 5% carbon dioxide was used for hypoxic conditions.
Cells (5000-10000) were plated on 60 mm dishes and incubated at 37° C., 5% CO2 for colony formation. After 10 days, colonies were fixed with 10% (v/v) methanol for 15 min and stained with 5% Giemsa (Sigma) for 30 min for colony visualization.
Sunitinib, a vascular endothelial growth factor receptor inhibitor is widely used for patients with metastatic RCC. RCC4+pVHL−, RCC4− and RCC4 siVDAC1− cells were treated with 1.0 and 1.5 μM of sunitinib (Data not shown). […] As RCC4 cells with VDAC1-ΔC present a higher glycolysis than RCC4+pVHL cells, we used 3 Bromopyruvate (3BP), an halogenated analogue of pyruvic acid that enters cells like a lactate via monocarboxylic acid transporters, to block glycolysis.

RCC4 siVDAC1 cells = test: Invasion assay (aggressiveness) of RCC4 siVDAC1 cells treated with 3BP; assay type: cell-based
Method: The invasion assay was performed using cell culture inserts with 8.0 μm pore transparent PET membrane coated with 10 μg/mL fibronectin. Inserts were coated with 2 μg/μL of Matrigel and incubated for 3 h at 37° C. in a CO2 incubator. Briefly, overnight serum-starved cells (8×10^4 cells) were seeded into the top chamber in medium without FBS, while medium with 10% FBS was present in the bottom chamber. The cells were incubated for 24 h. Media and remaining cells were removed from the top chamber with a cotton swab and washed twice with PBS. The bottom chamber was aspirated and washed twice with PBS. Inserts were fixed with 4% PFA. Invasiveness was assayed in triplicate for each condition, in at least three independent experiments. Cells that invaded the Matrigel and migrated through the filter and adhered to the lower surface were stained for 10 min with 0.5% crystal violet in 25% methanol. Inserts were rinsed in distilled water until no additional stain leached and were air-dried overnight. Crystal violet was extracted from the invading cells by adding 600 μl of 0.1M sodium citrate in 10% acetic acid. Absorbance was measured spectrophotometrically at 585 nm using Spectronic GENESYS 5 (Milton Roy, Rochester, N.Y.). Microarray experiments Microarray experiments were already described (22). […]

RCC4 cells = test: Cell death in RCC4 cells, siRNA to VDAC1 or AEP combined with 3BP; assay type: cell-based; conditions: 3BP combined with siRNA to VDAC1 or AEP
Excerpt: In patients who progressively lose the primary cilium, this loss generated increased metabolism and greater resistance to cell death, promoting tumor growth. Since this loss was related to the presence of the cleaved form of VDAC1, the strategy would therefore be to prevent the cleavage of VDAC1 to restore the presence of the primary cilium. […] Indeed, we characterized a signature related to EMT that can explain the aggressive phenotype of the tumors of these patients. However, remodeling of metabolism was changed. Although cancer metabolism is a hallmark of cancer, it has been shown that aberrant metabolism supports EMT (47,48). […] It is therefore possible to envisage specific treatment for these groups: Temsirolimus (50) or Everolimus, specific inhibitors of mTOR (51) that block proliferation, in combination with small molecule inhibitors that prevent EMT such as EW-7197 or IN-1130, through a block in TGFβ1 and 2, have already been used in metastatic breast and lung cancer (52). By maintaining only one metabolic pathway, cancer cells with a GLI1+/IFT20+ signature offer a metabolic vulnerability that it would be wise to exploit. […] Finally, combination of an immune checkpoint inhibitor such as atezolizumab or nivolumab (an anti-PDL1 or PD1 inhibitor) alone or plus 3-bromopyruvate could be evaluated on PC+ patients with such reduced overall survival (FIG. 1). […]

ccRCC = test: Survival (PFS, OS) of sunitinib-treated ccRCC patients by GLI1/IFT20 primary cilium signature, clinical trial SUVEGIL; assay type: in vivo, human; conditions: ccRCC patients treated with sunitinib, no VDAC1-ΔC
Method: FIG. 3. Patients with primary cilium signature present a higher immunogenicity compared to no primary cilium signature and a better response to immunotherapy. (A) Progression free-survival (PFS) and (B) Overall survival (OS) for the primary cilium signature was calculated from patients of the TCGA cohort C treated with sunitinib using the GLI1/IFT20 signature. Statistical significance (p-value) is indicated. The median survival is also indicated.
The Student's t-test was used to compare continuous variables and chi-square test, or Fisher's exact test (when the conditions for use of the χ2-test were not fulfilled), were used for categorical variables. To guarantee the independence of primary cilium as a prognostic factor, the multivariate analysis was performed using Cox regression adjusted to the stage and age. DFS was defined as the time from surgery to the appearance of metastasis. OS was defined as the time between surgery and the date of death from any cause, censoring those alive at last follow-up. The Kaplan-Meier method was used to produce survival curves and analyses of censored data were performed using Cox models. All analyses were performed using R software, version 3.2.2 (Vienna, Austria, https://www.r-project.org/).
We thus checked if PC+ patients with a GLI1+/IFT20+ signature and no VDAC1-ΔC are resistant or sensitive to sunitinib.

Row | Structure (SMILES) | sensitivity to 3BP ([1]; cells presenting no VDAC1-ΔC or less VDAC1, 10 and 25 μM) | aggressiveness (invasion) compared to control (RCC4 siVDAC1 cells) | cell death (RCC4 cells) | sensitivity to sunitinib ([1]; RCC4+pVHL, RCC4 and RCC4 siVDAC1 cells (all these cells), 1.0 and 1.5 μM) | sensitivity to sunitinib ([1]; RCC4 cells expressing no VDAC1-ΔC) | sensitivity to sunitinib, relative ([1]; cells with VDAC1-ΔC versus RCC4+pVHL cells or cells with no VDAC1-ΔC or less VDAC1, 1.0 and 1.5 μM) | survival (PFS and OS) of PC+ patients versus PC− groups (ccRCC)
1 | O=C(O)C(=O)CBr [3BP, 3-bromopyruvate] | highly sensitive | strongly decreased | increased cell death |  |  |  | 
2 | CCN(CC)CCNC(=O)c1c(C)[nH]c(/C=C2\C(=O)Nc3ccc(F)cc32)c1C [sunitinib, N-[2-(diethylamino)ethyl]-5-{[(3Z)-5-fluoro-2-oxo-2,3-dihydro-1H-indol-3-ylidene]methyl}-2,4-dimethyl-1H-pyrrole-3-carboxamide] |  |  |  | sensitive | less sensitive | slightly more sensitive | lower survival
